According to patent publication US9469598B2, “Erythropoietin production-promoting agent” (SBI Pharmaceuticals Co., Ltd., priority 2011, dated 2016):
Counter-ions that a name gives are not always drawn.

Test system: HEP3B cells
Assay: Erythropoietin production by HEP3B cells with reduced erythropoietin production ability (ELISA of culture supernatant)
Type: cell-based, human
Conditions: 1% oxygen, 24 h
Source text: Erythropoietin production ability of erythropoietin producer cells were reduced by culturing the erythropoietin producer cells under hypoxic condition to allow artificial production of erythropoietin, and then adding inflammatory cytokine or uremia toxin.
TNF-α was employed as the inflammatory cytokine. In addition, indoxyl sulfate was employed as the uremic toxin. Indoxyl sulfate is thought to be the causative substance of uremic toxin, and is also the most commonly used uremia-related marker. Indoxyl sulfate in vivo is also a substance where tryptophan-derived indoles are sulfated and synthesized in the liver. Accordingly, a state of reduced erythropoietin production by addition of inflammatory cytokine or uremic toxin is a state of mimicked renal anemia.
In this Example, HEP3B cells which are liver cancer cells that produce erythropoietin of Groups I to VI with different culture conditions (from ATCC) were used. First, as a culturing step common to all 6 groups, about 300,000 HEP3B cells per well of a 12-well plate were cultured. The culture condition employed was culturing in RPMI1640 medium supplemented with 10% FCS/PC-SM at 37° C. under 20% oxygen condition. After 24 hours of culture, they were divided into the following culture conditions I to VI, and further cultured for 24 hours. Human recombinant TNF-a (rhTNF-a; Roche) was employed as TNF-α in the following.
After culturing for 24 hours under the above culture conditions I to VI, the culture supernatant was separated, and the concentration of erythropoietin contained in the culture supernatant was measured with “Human Erythropoietin ELISA kit” (from Bender MedSystems).

## Cl.NCC(=O)CCC(=O)O [aminolevulinic acid hydrochloride, 5-aminolevulinic acid hydrochloride]
1 mM indoxyl sulfate, 0.3 μM 5-aminolevulinic acid hydrochloride with 0.15 μM sodium ferrous citrate
  erythropoietin concentration in culture supernatant, Group (VI) vs Group (V): significantly high erythropoietin concentration value compared to Group (V)
220 U/ml TNF-α, 0.3 μM 5-aminolevulinic acid hydrochloride with 0.15 μM sodium ferrous citrate
  erythropoietin concentration in culture supernatant, Group (IV) vs Group (III): significantly high erythropoietin concentration value compared to Group (III)

## TNF-α
220 U/ml TNF-α
  erythropoietin concentration in culture supernatant, Group (III) vs Group (I): decrease in the concentration of erythropoietin was observed

## O=S(=O)(O)Oc1c[nH]c2ccccc12 [indoxyl sulfate]
1 mM indoxyl sulfate
  erythropoietin concentration in culture supernatant, Group (V) vs Group (I): decrease in the concentration of erythropoietin was observed
